Key:
Type in all cases: in vivo
Settings in all cases: 312 h, rate 250 g/ha, evaluated after 13 days, 100=total damage to plant, 0=no damage to plant
[1] = system: Echinochloa crus-galli (ECHCG); test: Post-emergence herbicidal activity, glasshouse pot test
Experimental: (§1) Seeds of a variety of test species were sown in standard soil in pots. After cultivation for one day (pre-emergence) or after 8 days cultivation (post-emergence) under controlled conditions in a glasshouse (at 24/16° C., day/night; 14 hours light; 65% humidity), the plants were sprayed with an aqueous spray solution derived from the formulation of the technical active ingredient in acetone/water (50:50) solution containing 0.5% Tween 20 (polyoxyethelyene sorbitan monolaurate, CAS RN 9005-64-5). The test plants were then grown in a glasshouse under controlled conditions in a glasshouse (at 24/16° C., day/night; 14 hours light; 65% humidity) and watered twice daily. After 13 days for pre and post-emergence, the test was evaluated (100=total damage to plant; 0=no damage to plant). Test Plants: Lolium perenne (LOLPE), Alopecurus myosuroides (ALOMY), Echinochloa crus-galli (ECHCG), and Avena fatua (AVEFA). Post-Emergence Activity

Lolium perenne (LOLPE) [2] = test: as above
Experimental: as §1

[3] = system: Alopecurus myosuroides (ALOMY); test: as above
Experimental: as §1

Avena fatua (AVEFA) [4] = test: as above
Experimental: as §1

[5] = system: Echinochloa crus-galli (ECHCG); test: Pre-emergence herbicidal activity, glasshouse pot test
Experimental: as §1, with “Pre-Emergence” for “Post-Emergence”

Lolium perenne (LOLPE) [6] = test: as above
Experimental: as §1, with “Pre-Emergence” for “Post-Emergence”

[7] = system: Alopecurus myosuroides (ALOMY); test: as above
Experimental: as §1, with “Pre-Emergence” for “Post-Emergence”

Avena fatua (AVEFA) [8] = test: as above
Experimental: as §1, with “Pre-Emergence” for “Post-Emergence”

Row | SMILES | pest or weed control at 250 g/ha [1] [%] | pest or weed control at 250 g/ha (Lolium perenne (LOLPE) [2]) [%] | pest or weed control at 250 g/ha [3] [%] | pest or weed control at 250 g/ha (Avena fatua (AVEFA) [4]) [%] | pest or weed control at 250 g/ha [5] [%] | pest or weed control at 250 g/ha (Lolium perenne (LOLPE) [6]) [%] | pest or weed control at 250 g/ha [7] [%] | pest or weed control at 250 g/ha (Avena fatua (AVEFA) [8]) [%]
1 | CCc1ccc(Oc2ccc(Br)cc2Cl)cc1C1=C(O)[C@H]2[C@H]3CC[C@H](C3)[C@H]2C1=O [Compound A-20] | 70 | 20 | 30 | 0 | 60 | 50 | 50 | 10
2 | CCc1ccc(Oc2ccc(Cl)cc2Cl)cc1C1=C(O)[C@H]2[C@H]3CC[C@H](C3)[C@H]2C1=O [Compound A-21] | 70 | 20 | 40 | 0 | 40 | 30 | 20 | 0
3 | CCc1ccc(Oc2ccc(Br)cc2)cc1C1=C(O)[C@H]2[C@H]3CC[C@H](C3)[C@H]2C1=O [Compound A-22] | 100 | 40 | 50 | 80 | 90 | 80 | 40 | 30
4 | CCc1ccc(Oc2ccc(F)cc2)cc1C1=C(O)[C@H]2[C@H]3CC[C@H](C3)[C@H]2C1=O [Compound A-23] | 60 | 20 | 50 | 0 | 80 | 30 | 0 | 0
5 | CCc1ccc(Oc2ccc(Cl)cc2)cc1C1=C(O)[C@H]2[C@H]3CC[C@H](C3)[C@H]2C1=O [Compound A-24] | 100 | 60 | 60 | 70 | 50 | 40 | 10 | 30
6 | CCc1ccc(Oc2ccc(Cl)cc2F)cc1C1=C(O)[C@H]2[C@H]3CC[C@H](C3)[C@H]2C1=O [Compound A-25] | 90 | 60 | 50 | 40 | 70 | 70 | 20 | 30
7 | CCc1ccc(Oc2ccc(Cl)c(F)c2)cc1C1=C(O)[C@H]2[C@H]3CC[C@H](C3)[C@H]2C1=O [Compound A-26] | 80 | 30 | 60 | 80 | 80 | 20 | 0 | 0
8 | CCc1ccc(Oc2ccc(Br)cc2F)cc1C1=C(O)[C@H]2[C@H]3CC[C@H](C3)[C@H]2C1=O [Compound A-27] | 80 | 80 | 60 | 70 | 60 | 40 | 20 | 0
9 | CCc1ccc(Oc2ccc(Br)cc2Cl)cc1C1=C(O)C2C(C1=O)[C@H]1CC[C@@H]2CC1 (some centres unmarked) [Compound A-28] | 80 | 0 | 0 | 0 | 20 | 0 | 0 | 0
10 | CCc1ccc(Oc2ccc(Cl)cc2Cl)cc1C1=C(O)C2C(C1=O)[C@H]1CC[C@@H]2CC1 (some centres unmarked) [Compound A-29] | 100 | 0 | 60 | 0 | 50 | 0 | 0 | 0

From US8895474B2, “Herbicidally active cyclopentanediones and derivatives thereof, and their use in controlling weeds” (Syngenta Limited, priority 2009, dated 2014)
